Measured values published in PubChem BioAssay (NCI).
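Briefly, cells in 96-well plates were exposed to five compound concentrations for 48 h, and endpoints were estimated by linear interpolation. Definition used: TGI = concentration required for complete inhibition of growth.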

Tests used:
Assay in all cases: NCI tumour cell line growth inhibition, 48 h
A498 renal = test system: A498 renal
A549 NSCLC = test system: A549 NSCLC
CAKI-1 renal = test system: CAKI-1 renal
CCRF-CEM leukemia = test system: CCRF-CEM leukemia
COLO 205 colon = test system: COLO 205 colon
DLD-1 colon = test system: DLD-1 colon
DMS 114 small cell lung = test system: DMS 114 small cell lung
DMS 273 small cell lung = test system: DMS 273 small cell lung
EKVX NSCLC = test system: EKVX NSCLC
HCC-2998 colon = test system: HCC-2998 colon
HCT-116 colon = test system: HCT-116 colon
HCT-15 colon = test system: HCT-15 colon
HL-60(TB) leukemia = test system: HL-60(TB) leukemia
HOP-18 NSCLC = test system: HOP-18 NSCLC
HOP-62 NSCLC = test system: HOP-62 NSCLC
HOP-92 NSCLC = test system: HOP-92 NSCLC
HT29 colon = test system: HT29 colon
IGROV1 ovarian = test system: IGROV1 ovarian
K-562 leukemia = test system: K-562 leukemia
KM12 colon = test system: KM12 colon
KM20L2 colon = test system: KM20L2 colon
LOX IMVI melanoma = test system: LOX IMVI melanoma
M19-MEL melanoma = test system: M19-MEL melanoma
MALME-3M melanoma = test system: MALME-3M melanoma
MCF7 breast = test system: MCF7 breast
MOLT-4 leukemia = test system: MOLT-4 leukemia
NCI-H226 lung = test system: NCI-H226 lung
NCI-H23 lung = test system: NCI-H23 lung
NCI-H460 lung = test system: NCI-H460 lung
NCI-H522 lung = test system: NCI-H522 lung
NCI/ADR-RES ovarian = test system: NCI/ADR-RES ovarian
OVCAR-3 ovarian = test system: OVCAR-3 ovarian
OVCAR-4 ovarian = test system: OVCAR-4 ovarian
OVCAR-5 ovarian = test system: OVCAR-5 ovarian
OVCAR-8 ovarian = test system: OVCAR-8 ovarian
P388 leukemia = test system: P388 leukemia
P388/ADR leukemia = test system: P388/ADR leukemia
RPMI-8226 leukemia = test system: RPMI-8226 leukemia
RXF 393 renal = test system: RXF 393 renal
SF-268 CNS = test system: SF-268 CNS
SF-295 CNS = test system: SF-295 CNS
SF-539 CNS = test system: SF-539 CNS
SK-MEL-2 melanoma = test system: SK-MEL-2 melanoma
SK-MEL-28 melanoma = test system: SK-MEL-28 melanoma
SK-MEL-5 melanoma = test system: SK-MEL-5 melanoma
SK-OV-3 ovarian = test system: SK-OV-3 ovarian
SN12C renal = test system: SN12C renal
SN12K1 renal = test system: SN12K1 renal
SNB-19 CNS = test system: SNB-19 CNS
SNB-75 CNS = test system: SNB-75 CNS
SNB-78 CNS = test system: SNB-78 CNS
SW-620 colon = test system: SW-620 colon
U251 CNS = test system: U251 CNS
UACC-257 melanoma = test system: UACC-257 melanoma
UACC-62 melanoma = test system: UACC-62 melanoma
UO-31 renal = test system: UO-31 renal
XF 498 CNS = test system: XF 498 CNS

**Q.** Which TGI (A498 renal) does the source give for CCCCC1=C(Br)C(=C(Br)Br)OC1=O here?
**A.** 31 µM

**Q.** What about the TGI (A549 NSCLC) of the same molecule?
**A.** 33.8 µM

**Q.** What about the TGI (CAKI-1 renal) of the same molecule?
**A.** 5.53 µM

**Q.** And the TGI (CCRF-CEM leukemia)?
**A.** 7.81 µM

**Q.** What about the TGI (COLO 205 colon) of the same molecule?
**A.** 8.11 µM

**Q.** And the TGI (DLD-1 colon)?
**A.** 4.37 µM

**Q.** What about the TGI (DMS 114 small cell lung) of the same molecule?
**A.** 5.71 µM

**Q.** What about the TGI (DMS 273 small cell lung) of the same molecule?
**A.** 8.01 µM

**Q.** And the TGI (EKVX NSCLC)?
**A.** 10.6 µM

**Q.** What about the TGI (HCC-2998 colon) of the same molecule?
**A.** 18.1 µM

**Q.** And the TGI (HCT-116 colon)?
**A.** 8.85 µM

**Q.** What about the TGI (HCT-15 colon) of the same molecule?
**A.** 5.55 µM

**Q.** And the TGI (HL-60(TB) leukemia)?
**A.** 5.38 µM

**Q.** What about the TGI (HOP-18 NSCLC) of the same molecule?
**A.** 10.5 µM

**Q.** And the TGI (HOP-62 NSCLC)?
**A.** 19 µM

**Q.** What about the TGI (HOP-92 NSCLC) of the same molecule?
**A.** 23.4 µM

**Q.** What about the TGI (HT29 colon) of the same molecule?
**A.** 10.2 µM

**Q.** And the TGI (IGROV1 ovarian)?
**A.** 5.92 µM

**Q.** And the TGI (K-562 leukemia)?
**A.** 13 µM

**Q.** What about the TGI (KM12 colon) of the same molecule?
**A.** 9.28 µM

**Q.** And the TGI (KM20L2 colon)?
**A.** 24.8 µM

**Q.** And the TGI (LOX IMVI melanoma)?
**A.** 4.78 µM

**Q.** And the TGI (M19-MEL melanoma)?
**A.** 8.42 µM

**Q.** And the TGI (MALME-3M melanoma)?
**A.** 5.31 µM

**Q.** What about the TGI (MCF7 breast) of the same molecule?
**A.** 15.4 µM

**Q.** And the TGI (MOLT-4 leukemia)?
**A.** 5.66 µM

**Q.** What about the TGI (NCI-H226 lung) of the same molecule?
**A.** 9.35 µM

**Q.** What about the TGI (NCI-H23 lung) of the same molecule?
**A.** 15.8 µM

**Q.** And the TGI (NCI-H460 lung)?
**A.** 16.8 µM

**Q.** And the TGI (NCI-H522 lung)?
**A.** 3.5 µM

**Q.** And the TGI (NCI/ADR-RES ovarian)?
**A.** 11.9 µM

**Q.** What about the TGI (OVCAR-3 ovarian) of the same molecule?
**A.** 6.05 µM

**Q.** What about the TGI (OVCAR-4 ovarian) of the same molecule?
**A.** 3.32 µM

**Q.** And the TGI (OVCAR-5 ovarian)?
**A.** 30.3 µM

**Q.** What about the TGI (OVCAR-8 ovarian) of the same molecule?
**A.** 11.4 µM

**Q.** And the TGI (P388 leukemia)?
**A.** 2.4 µM

**Q.** What about the TGI (P388/ADR leukemia) of the same molecule?
**A.** 5.76 µM

**Q.** And the TGI (RPMI-8226 leukemia)?
**A.** 4.67 µM

**Q.** What about the TGI (RXF 393 renal) of the same molecule?
**A.** 5.95 µM

**Q.** What about the TGI (SF-268 CNS) of the same molecule?
**A.** 7.9 µM

**Q.** And the TGI (SF-295 CNS)?
**A.** 23.7 µM

**Q.** And the TGI (SF-539 CNS)?
**A.** 10.5 µM

**Q.** And the TGI (SK-MEL-2 melanoma)?
**A.** 8.49 µM

**Q.** And the TGI (SK-MEL-28 melanoma)?
**A.** 7.78 µM

**Q.** What about the TGI (SK-MEL-5 melanoma) of the same molecule?
**A.** 13.5 µM

**Q.** And the TGI (SK-OV-3 ovarian)?
**A.** 31.4 µM

**Q.** What about the TGI (SN12C renal) of the same molecule?
**A.** 7.92 µM

**Q.** What about the TGI (SN12K1 renal) of the same molecule?
**A.** 3.96 µM

**Q.** And the TGI (SNB-19 CNS)?
**A.** 20.3 µM

**Q.** And the TGI (SNB-75 CNS)?
**A.** 16.5 µM

**Q.** And the TGI (SNB-78 CNS)?
**A.** 37 µM

**Q.** And the TGI (SW-620 colon)?
**A.** 12.4 µM

**Q.** And the TGI (U251 CNS)?
**A.** 17.1 µM

**Q.** What about the TGI (UACC-257 melanoma) of the same molecule?
**A.** 6.16 µM

**Q.** And the TGI (UACC-62 melanoma)?
**A.** 6.51 µM

**Q.** And the TGI (UO-31 renal)?
**A.** 24.2 µM

**Q.** What about the TGI (XF 498 CNS) of the same molecule?
**A.** 19.9 µM
